Laboratory results published in ChEMBL document CHEMBL1909046, “DrugMatrix in vitro pharmacology data”.

What was measured:
[1] = molecular target: T1, Muscarinic acetylcholine receptor M4 (Homo sapiens, UniProt P08173); format: cell membranes, CHO-K1, Membrane; details: cho-k1; also: in other assays of this panel Not Active means under 50% inhibition at 10 µM
T1 sequence (P08173 whole entry): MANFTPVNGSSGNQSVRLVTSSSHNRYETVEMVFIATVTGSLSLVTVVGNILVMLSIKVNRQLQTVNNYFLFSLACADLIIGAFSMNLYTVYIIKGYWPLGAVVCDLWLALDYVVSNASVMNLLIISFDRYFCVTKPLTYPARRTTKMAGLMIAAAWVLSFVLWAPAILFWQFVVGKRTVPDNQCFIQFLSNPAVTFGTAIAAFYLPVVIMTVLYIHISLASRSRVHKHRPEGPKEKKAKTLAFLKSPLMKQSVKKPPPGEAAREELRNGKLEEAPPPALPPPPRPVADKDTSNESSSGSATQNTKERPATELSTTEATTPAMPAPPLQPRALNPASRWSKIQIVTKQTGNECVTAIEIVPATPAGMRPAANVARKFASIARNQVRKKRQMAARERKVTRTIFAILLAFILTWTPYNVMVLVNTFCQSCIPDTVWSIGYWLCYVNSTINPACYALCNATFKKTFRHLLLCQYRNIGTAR

[2] = DRUGMATRIX: Imidazoline I2, Central radioligand binding (ligand: [3H] Idazoxan); format: cell membranes, Rattus norvegicus, Wistar, Cerebral cortex, Membrane; details: Not Active = under 50% inhibition at 10 µM
Estrogen receptor beta = Estrogen receptor beta (Homo sapiens, UniProt Q92731); details: sf9; also: in other assays of this panel Not Active means under 50% inhibition at 10 µM
[3] = molecular target: T2, C-X-C chemokine receptor type 1 (Homo sapiens, UniProt P25024); also: in other assays of this panel Not Active means under 50% inhibition at 10 µM
T2 sequence (P25024 whole entry): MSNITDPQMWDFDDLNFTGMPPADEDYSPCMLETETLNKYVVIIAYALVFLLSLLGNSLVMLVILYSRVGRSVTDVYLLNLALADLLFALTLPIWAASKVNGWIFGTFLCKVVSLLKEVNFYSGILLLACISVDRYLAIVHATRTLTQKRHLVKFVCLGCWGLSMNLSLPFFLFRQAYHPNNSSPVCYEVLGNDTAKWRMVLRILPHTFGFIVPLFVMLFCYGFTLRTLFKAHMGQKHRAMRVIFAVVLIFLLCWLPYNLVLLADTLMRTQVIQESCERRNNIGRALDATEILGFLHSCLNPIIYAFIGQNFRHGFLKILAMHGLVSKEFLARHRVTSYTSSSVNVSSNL

D(3) dopamine receptor = D(3) dopamine receptor (Homo sapiens, UniProt P35462); assay: DRUGMATRIX: Dopamine D3 radioligand binding (ligand: [3H] Spiperone); format: cell membranes, CHO, Membrane
[4] = molecular target: T3, C-C chemokine receptor type 4 (Homo sapiens, UniProt P51679); format: cell membranes, Membrane; details: chem-1; also: in other assays of this panel Not Active means under 50% inhibition at 10 µM
T3 sequence (P51679 whole entry): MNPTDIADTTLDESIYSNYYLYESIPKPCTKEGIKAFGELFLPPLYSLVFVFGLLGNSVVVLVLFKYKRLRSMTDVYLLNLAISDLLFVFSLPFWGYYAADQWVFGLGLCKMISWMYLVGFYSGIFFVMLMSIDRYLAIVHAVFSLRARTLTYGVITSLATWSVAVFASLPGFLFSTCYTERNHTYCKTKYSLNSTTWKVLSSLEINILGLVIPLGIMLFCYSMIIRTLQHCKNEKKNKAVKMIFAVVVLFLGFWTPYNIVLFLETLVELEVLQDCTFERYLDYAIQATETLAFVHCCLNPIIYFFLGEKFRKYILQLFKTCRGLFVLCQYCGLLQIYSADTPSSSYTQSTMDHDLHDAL

D(3) dopamine receptor, sequence (P35462 whole entry): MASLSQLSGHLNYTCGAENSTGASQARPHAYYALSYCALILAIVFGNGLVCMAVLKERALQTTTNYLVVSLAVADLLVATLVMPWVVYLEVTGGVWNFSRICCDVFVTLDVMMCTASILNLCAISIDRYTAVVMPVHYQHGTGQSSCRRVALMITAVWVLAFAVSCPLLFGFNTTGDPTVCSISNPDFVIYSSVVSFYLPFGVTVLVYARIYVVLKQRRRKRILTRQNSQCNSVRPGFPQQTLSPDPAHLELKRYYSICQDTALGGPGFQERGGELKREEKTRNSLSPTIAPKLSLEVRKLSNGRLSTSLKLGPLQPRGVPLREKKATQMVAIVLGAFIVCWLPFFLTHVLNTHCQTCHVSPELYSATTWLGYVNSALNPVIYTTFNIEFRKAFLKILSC
Estrogen receptor beta, sequence (Q92731 whole entry): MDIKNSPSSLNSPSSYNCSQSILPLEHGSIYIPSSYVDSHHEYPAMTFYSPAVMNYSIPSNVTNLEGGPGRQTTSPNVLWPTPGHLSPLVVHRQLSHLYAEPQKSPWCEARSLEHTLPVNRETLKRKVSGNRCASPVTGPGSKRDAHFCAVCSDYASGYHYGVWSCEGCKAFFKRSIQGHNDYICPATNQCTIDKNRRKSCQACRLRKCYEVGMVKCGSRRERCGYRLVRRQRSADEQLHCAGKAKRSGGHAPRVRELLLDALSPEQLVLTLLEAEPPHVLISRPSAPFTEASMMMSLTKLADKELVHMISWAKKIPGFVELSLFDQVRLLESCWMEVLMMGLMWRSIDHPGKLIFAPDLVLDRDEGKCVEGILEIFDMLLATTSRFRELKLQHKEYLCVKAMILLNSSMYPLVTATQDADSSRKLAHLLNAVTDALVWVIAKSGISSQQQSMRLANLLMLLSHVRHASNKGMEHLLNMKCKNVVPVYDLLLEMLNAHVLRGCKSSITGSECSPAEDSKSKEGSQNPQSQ

For `CN1C[C@@H]2C[C@H]1CN2c1cc2c(cc1F)c(=O)c(C(=O)O)cn2C1CC1` [DANOFLOXACIN], the IC50 [1] was “Not Active”, the IC50 [2] was “Not Active” and the Ki [2] was “Not Active”. For the same compound, the IC50 (Estrogen receptor beta) was “Not Active”, the IC50 [3] was “Not Active” and the IC50 (D(3) dopamine receptor; cho) was “Not Active”. The IC50 [4] was “Not Active”.
In the case of `COc1cccc2c1C(=O)c1c(O)c3c(c(O)c1C2=O)C[C@@](O)(C(C)=O)C[C@@H]3O[C@H]1C[C@H](N)[C@H](O)[C@H](C)O1` [DAUNORUBICIN], the IC50 [1] is reported as “Not Active”, the IC50 [2] is reported as “Not Active” and the Ki [2] is reported as “Not Active”. The IC50 (Estrogen receptor beta) was “Not Active”, the IC50 [3] was “Not Active” and the IC50 (D(3) dopamine receptor; cho) was “Not Active”. For the same compound, the IC50 [4] was “Not Active”.
With `O=C(O)c1cc(-c2ccc(F)cc2F)ccc1O` [DIFLUNISAL] the IC50 [1] was “Not Active”, the IC50 [2] was “Not Active” and the Ki [2] was “Not Active”. For the same compound, the IC50 (Estrogen receptor beta) was “Not Active”, the IC50 [3] was “Not Active” and the IC50 (D(3) dopamine receptor; cho) was “Not Active”. The IC50 [4] was “Not Active”.
For `CC1=NN(c2ccccc2)C(=O)C1` [EDARAVONE], the IC50 [1] was “Not Active”, the IC50 [2] was “Not Active” and the Ki [2] was “Not Active”. The IC50 (Estrogen receptor beta) was “Not Active”, the IC50 [3] was “Not Active” and the IC50 (D(3) dopamine receptor; cho) was “Not Active”. For the same compound, the IC50 [4] was “Not Active”.
With `CC(C)C[C@H]1C(=O)N2CCC[C@H]2[C@]2(O)O[C@](NC(=O)[C@@H]3C=C4c5cccc6[nH]cc(c56)C[C@H]4N(C)C3)(C(C)C)C(=O)N12` [ERGOCRYPTINE] the IC50 [1] was “Not Active”, the IC50 ([2]; read-out: IC50) was 3.28 nM and the Ki ([2]; read-out: Ki) was 2.19 nM. For the same compound, the IC50 (Estrogen receptor beta) was “Not Active”, the IC50 [3] was “Not Active” and the IC50 (D(3) dopamine receptor; read-out: IC50) was 0.589 nM. The Ki (D(3) dopamine receptor; read-out: Ki) was 0.2 nM and the IC50 [4] was “Not Active”.
In the case of `C[C@]12CC[C@@H]3c4ccc(O)cc4CC[C@H]3[C@@H]1C[C@@H](O)[C@@H]2O` [ESTRIOL], the IC50 [1] is reported as “Not Active”, the IC50 [2] is reported as “Not Active” and the Ki [2] is reported as “Not Active”. For the same compound, the IC50 (Estrogen receptor beta) was “Not Active”, the IC50 [3] was “Not Active” and the IC50 (D(3) dopamine receptor; cho) was “Not Active”. The IC50 [4] was “Not Active”.
With `C#C[C@]1(O)CC[C@H]2[C@@H]3CCC4=CC(=O)CC[C@]4(C)[C@H]3CC[C@@]21C` [ETHISTERONE] the IC50 [1] was “Not Active”, the IC50 [2] was “Not Active” and the Ki [2] was “Not Active”. For the same compound, the IC50 (Estrogen receptor beta) was “Not Active”, the IC50 [3] was “Not Active” and the IC50 (D(3) dopamine receptor; cho) was “Not Active”. The IC50 [4] was “Not Active”.
With `CC(C)(C(=O)O)c1ccc(C(O)CCCN2CCC(C(O)(c3ccccc3)c3ccccc3)CC2)cc1` (stereo unspecified) [FEXOFENADINE] the IC50 [1] was “Not Active”, the IC50 [2] was “Not Active” and the Ki [2] was “Not Active”. For the same compound, the IC50 (Estrogen receptor beta) was “Not Active”, the IC50 [3] was “Not Active” and the IC50 (D(3) dopamine receptor; cho) was “Not Active”. The IC50 [4] was “Not Active”.
With `CN1CCN(c2c(F)cc3c(=O)c(C(=O)O)cn(CCF)c3c2F)CC1` [FLEROXACIN] the IC50 [1] was “Not Active”, the IC50 [2] was “Not Active” and the Ki [2] was “Not Active”. The IC50 (Estrogen receptor beta) was “Not Active”, the IC50 [3] was “Not Active” and the IC50 (D(3) dopamine receptor; cho) was “Not Active”. For the same compound, the IC50 [4] was “Not Active”.
With `O=c1[nH]c(=O)n([C@H]2C[C@H](O)[C@@H](CO)O2)cc1F` [FLOXURIDINE] the IC50 [1] was “Not Active”, the IC50 [2] was “Not Active” and the Ki [2] was “Not Active”. The IC50 (Estrogen receptor beta) was “Not Active”, the IC50 [3] was “Not Active” and the IC50 (D(3) dopamine receptor; cho) was “Not Active”. For the same compound, the IC50 [4] was “Not Active”.
For `COC(=O)Nc1nc2cc(C(=O)c3ccc(F)cc3)ccc2[nH]1` [FLUBENDAZOLE], the IC50 [1] was “Not Active”, the IC50 [2] was “Not Active” and the Ki [2] was “Not Active”. The IC50 (Estrogen receptor beta) was “Not Active”, the IC50 [3] was “Not Active” and the IC50 (D(3) dopamine receptor; cho) was “Not Active”. For the same compound, the IC50 [4] was “Not Active”.
With `CC(=O)OCC(=O)[C@@]1(O)CC[C@H]2[C@@H]3CCC4=CC(=O)CC[C@]4(C)[C@@]3(F)[C@@H](O)C[C@@]21C` [FLUDROCORTISONE ACETATE] the IC50 [1] was “Not Active”, the IC50 [2] was “Not Active” and the Ki [2] was “Not Active”. For the same compound, the IC50 (Estrogen receptor beta) was “Not Active”, the IC50 [3] was “Not Active” and the IC50 (D(3) dopamine receptor; cho) was “Not Active”. The IC50 [4] was “Not Active”.
In the case of `CC(=O)OCC(=O)[C@@]12OC(C)(C)O[C@@H]1C[C@H]1[C@@H]3C[C@H](F)C4=CC(=O)C=C[C@]4(C)[C@@]3(F)[C@@H](O)C[C@@]12C` [FLUOCINONIDE], the IC50 [1] is reported as “Not Active”, the IC50 [2] is reported as “Not Active” and the Ki [2] is reported as “Not Active”. The IC50 (Estrogen receptor beta) was “Not Active”, the IC50 [3] was “Not Active” and the IC50 (D(3) dopamine receptor; cho) was “Not Active”. The IC50 [4] was “Not Active”.
With `Cc1ccc(C)c(OCCCC(C)(C)C(=O)O)c1` [GEMFIBROZIL] the IC50 [1] was “Not Active”, the IC50 [2] was “Not Active” and the Ki [2] was “Not Active”. The IC50 (Estrogen receptor beta) was “Not Active”, the IC50 [3] was “Not Active” and the IC50 (D(3) dopamine receptor; cho) was “Not Active”. The IC50 [4] was “Not Active”.
For `CCC1=C(C)CN(C(=O)NCCc2ccc(S(=O)(=O)NC(=O)N[C@H]3CC[C@H](C)CC3)cc2)C1=O` [GLIMEPIRIDE], the IC50 [1] was “Not Active”, the IC50 [2] was “Not Active” and the Ki [2] was “Not Active”. For the same compound, the IC50 (Estrogen receptor beta) was “Not Active”, the IC50 [3] was “Not Active” and the IC50 (D(3) dopamine receptor; cho) was “Not Active”. For the same compound, the IC50 [4] was “Not Active”.
